Laboratory results as given in article PMC7466059, “Synthesis and Ex Vivo Trans-Corneal Permeation of Penetratin Analogues as Ophthalmic Carriers: Preliminary Results” (Pharmaceutics, 2020).

Key:
[1] = Ex vivo trans-corneal permeation, Franz-type diffusion cells; type: in vitro ADME, pig; conditions: ex vivo porcine cornea, epithelial side to donor, area 0.2 cm^2; donor 100 µM, 200 µL; donor and receiving solutions PBS pH 7.4; 37 °C, 6 h, hourly sampling; fluorescence 485/535 nm; mean ± sd, n = 3-4
Procedure: Permeation experiments across freshly porcine cornea were performed following a method previously reported. In detail, transparent porcine corneas were isolated from fresh pig eyes (breed: Large White and Landrace; weight: 145–190 kg; age: 10–11 months; sex: female and male; Macello Annoni SpA, Busseto, Italy) and supported by glass Franz-type diffusion cells, having a permeation area of 0.2 cm^2. The epithelial side was in contact with the donor, i.e., 200 µL of aqueous solution containing a peptide: each concentration and solvent are indicated in Table 2. Donor concentrations were selected based on different solubility and analytical sensitivity (see paragraph 2.4 and Table S2). For some peptides, the solubilization was improved by dissolving the raw material using small amount of DMSO (final concentration less than 5% v/v), and then PBS or PBS+0.1% BSA were alternately added.
To fill the receptor compartment, around 4 mL of degassed PBS or PBS+0.1% BSA was used (see Table 2), being kept at 37 °C and maintained under magnetic stirring to avoid any boundary layer effect. The presence of 0.1% BSA aids in preventing peptides aggregation. Permeation experiments lasted 6 h, and for quantification purposes, 200 µL of the receiving solution were collected every hour and reintegrated with fresh medium. Each condition was replicated between 3 and 4 times, using cornea isolated from different animals.
Permeation samples were analysed without preliminary separation by fluorescence, using a Spark 10M microplate reader (Tecan Trading AG, Switzerland); excitation and emission wavelengths were 485 nm and 535 nm, respectively. Standard solutions were prepared in PBS pH 7.4 or in PBS containing BSA 0.1%. RSD% (relative standard deviation %) was lower than 10%, while ER% (relative error %) resulted lower than 15%.
The amount of CPP permeated across the cornea (nmol/cm^2) is plotted against time (hour): the slope of the regression line at steady state represents the trans-corneal flux J (nmol/cm^2 h). The apparent permeability coefficient Papp (cm/s) is then calculated as Equation (1): Papp = J/c(1) being c (µM) the concentration of the donor solution. Papp allows for a direct comparison among permeants studied using different donor concentrations.

[2] = design: method as in PMID 24521351, PMID 28927928; conditions: literature report; cited from earlier work

In the case of `CC[C@H](C)[C@H](NC(=O)[C@H](CCCCN)NC(=O)[C@@H](NC(=O)[C@H](CCC(N)=O)NC(=O)[C@H](CCCNC(=N)N)NC(=O)c1ccc2c(c1)C(=O)OC21c2ccc(O)cc2Oc2cc(O)ccc21)[C@@H](C)CC)C(=O)N[C@@H](Cc1c[nH]c2ccccc12)C(=O)N[C@@H](Cc1ccccc1)C(=O)N[C@@H](CCC(N)=O)C(=O)N[C@@H](CC(N)=O)C(=O)N[C@@H](CCCNC(=N)N)C(=O)N[C@@H](CCCNC(=N)N)C(=O)N[C@@H](CCSC)C(=O)N[C@@H](CCCCN)C(=O)N[C@@H](Cc1c[nH]c2ccccc12)C(=O)N[C@@H](CCCCN)C(=O)N[C@@H](CCCCN)C(N)=O` [reference compound], the “Papp (apparent permeability coefficient)” value [1] is listed as 4.54 ± 2.01 10^−6 cm/s and the ocular toxicity [2] is listed as “lacking in ocular toxicity”.
